Experimental data as given in patent US20230085307A1, “PYRIDAZINONE COMPOUND AND HERBICIDE” (NISSAN CHEMICAL CORPORATION, priority 2019, published 2023).

Experiments:
[1] = tested on: southern crabgrass; assay: Test Example 5: herbicidal effect by foliage application, plastic box (Table 20, symbol F); type: in vivo, southern crabgrass (Digitaria ciliaris); settings: foliage application, three weeks after application
Procedure, shortened: (§1)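 Post-emergence foliar test in sterilized diluvial soil. Compound applied as water-diluted emulsion at a predetermined rate to 14-day-old plants; evaluation at three weeks.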

[2] = tested on: velvetleaf; assay: Test Example 4: herbicidal effect by soil treatment (Table 19, symbol M); type: in vivo, velvetleaf (Abutilon theophrasti)
Procedure, shortened: (§2)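 Scoring uses the grading scale of an earlier test, three weeks post-application. Treatment consists of spraying a diluted emulsion formulation across the surface of sterilized diluvial soil in which seeds are buried near 1.5 cm deep; boxes are kept in a greenhouse between 25° C. and 30° C.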

[3] = tested on: chickweed; assay: Test Example 4: herbicidal effect by soil treatment (Table 19, symbol P); type: in vivo, common chickweed (Stellaria media)
Procedure, shortened: as §2

[4] = tested on: wild oat; assay: Test Example 4: herbicidal effect by soil treatment (Table 19, symbol I); type: in vivo, wild oat (Avena fatua)
Procedure, shortened: as §2

[5] = tested on: oval-leafed pondweed; assay: Test Example 1: herbicidal activity, application before weed generation under submerged conditions (Table 16, symbol C); type: in vivo, oval-leafed pondweed (Monochoria vaginalis)
Procedure, shortened: (§3)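 Alluvial soil was flooded to 4 cm depth, weed seeds were sown mixed and 2.5-leaf rice seedlings were transplanted. On sowing day, the compound's emulsion, diluted in water to a set dose, was applied to the water surface. Plants grew at 25–30 °C and were scored 0–5 after three weeks.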

[6] = tested on: redroot pigweed; assay: Test Example 5: herbicidal effect by foliage application, plastic box (Table 20, symbol N); type: in vivo, redroot pigweed (Amaranthus retroflexus); settings: foliage application, three weeks after application
Procedure, shortened: as §1

[7] = tested on: oval-leafed pondweed; assay: Test Example 2: herbicidal activity, application during weed generation under submerged conditions (Table 17, symbol C); type: in vivo, oval-leafed pondweed (Monochoria vaginalis); settings: application during weed generation, submerged conditions
Procedure, shortened: (§4)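 3-wk visual-criteria score after one water-surface dose. Emulsion formulation, water-diluted to set rate; applied at 1–2 leaf stage; alluvial soil, 4 cm standing water; seeds co-sown; greenhouse 25–30° C.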

[8] = tested on: barnyard grass; assay: Test Example 3: herbicidal effect by foliage application, Wagner pot (Table 18, symbol H); type: in vivo, barnyard grass (Echinochloa crus-galli)
Procedure, shortened: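 Plants were sown in alluvial soil held under 0.1–0.5 cm standing water and grown 14 days in a greenhouse at 25–30 °C. An emulsifiable formulation, water-diluted to the set dose, was then sprayed onto the foliage, and effects were scored three weeks later using previously defined criteria.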

[9] = tested on: persian speedwell; assay: Test Example 4: herbicidal effect by soil treatment (Table 19, symbol R); type: in vivo, Persian speedwell (Veronica persica)
Procedure, shortened: as §2

[10] = tested on: Japanese bulrush; assay: Test Example 1: herbicidal activity, application before weed generation under submerged conditions (Table 16, symbol B); type: in vivo, Japanese bulrush (Schoenoplectus juncoides)
Procedure, shortened: as §3

[11] = tested on: windgrass; assay: Test Example 4: herbicidal effect by soil treatment (Table 19, symbol L); type: in vivo, windgrass (Apera spica-venti)
Procedure, shortened: as §2

[12] = tested on: late watergrass; assay: Test Example 2: herbicidal activity, application during weed generation under submerged conditions (Table 17, symbol A); type: in vivo, late watergrass (Echinochloa oryzicola); settings: application during weed generation, submerged conditions
Procedure, shortened: as §4

[13] = tested on: false cleavers; assay: Test Example 4: herbicidal effect by soil treatment (Table 19, symbol Q); type: in vivo, false cleavers (Galium spurium)
Procedure, shortened: as §2

[14] = tested on: green foxtail; assay: Test Example 5: herbicidal effect by foliage application, plastic box (Table 20, symbol G); type: in vivo, green foxtail (Setaria viridis); settings: foliage application, three weeks after application
Procedure, shortened: as §1

[15] = tested on: late watergrass; assay: Test Example 1: herbicidal activity, application before weed generation under submerged conditions (Table 16, symbol A); type: in vivo, late watergrass (Echinochloa oryzicola)
Procedure, shortened: as §3

[16] = tested on: redroot pigweed; assay: Test Example 4: herbicidal effect by soil treatment (Table 19, symbol N); type: in vivo, redroot pigweed (Amaranthus retroflexus)
Procedure, shortened: as §2

[17] = tested on: southern crabgrass; assay: Test Example 4: herbicidal effect by soil treatment (Table 19, symbol F); type: in vivo, southern crabgrass (Digitaria ciliaris)
Procedure, shortened: as §2

[18] = amount of applied herbicide 320 g/ha
[19] = amount of applied herbicide 80 g/ha

Structure (SMILES)	F: southern crabgrass, herbicidal effect grade ([1]; 320 g/ha)	M: velvetleaf, herbicidal effect grade [2, 18]	P: chickweed, herbicidal effect grade [3, 18]	I: wild oat, herbicidal effect grade [4, 18]	Herbicidal effect, C: oval-leafed pondweed [5, 18]	N: redroot pigweed, herbicidal effect grade ([6]; 320 g/ha)	herbicidal effect rating, C: oval-leafed pondweed ([7]; AAH 320 g/ha)	herbicidal effect on barnyard grass (H) ([8]; 320 g/ha)	R: persian speedwell, herbicidal effect grade [9, 18]	Herbicidal effect, B: Japanese bulrush [10, 18]	L: windgrass, herbicidal effect grade [11, 18]	herbicidal effect rating, A: late watergrass ([12]; AAH 320 g/ha)	Q: false cleavers, herbicidal effect grade [13, 18]	G: green foxtail, herbicidal effect grade ([14]; 320 g/ha)	Herbicidal effect, A: late watergrass [15, 18]	N: redroot pigweed, herbicidal effect grade [16, 18]	F: southern crabgrass, herbicidal effect grade [17, 18]	also measured
CCCC(=O)Oc1c(C)nn(C)c(=O)c1-c1c(-c2ccccc2OCC)sc2cc(OC)ccc12 [3-071]	5 (Herbicidal rate of 90% or more (almost completely withered))	1 (Herbicidal rate of 5% or more and less than 20%)	5 (Herbicidal rate of 90% or more (almost completely withered))	3 (Herbicidal rate of 40% or more and less than 70%)	5 (Herbicidal rate of 90% or more (almost completely withered))	5 (Herbicidal rate of 90% or more (almost completely withered))	5 (Herbicidal rate of 90% or more (almost completely withered))	5 (Herbicidal rate of 90% or more (almost completely withered))	5 (Herbicidal rate of 90% or more (almost completely withered))	5 (Herbicidal rate of 90% or more (almost completely withered))	4 (Herbicidal rate of 70% or more and less than 90%)	5 (Herbicidal rate of 90% or more (almost completely withered))	5 (Herbicidal rate of 90% or more (almost completely withered))	5 (Herbicidal rate of 90% or more (almost completely withered))	5 (Herbicidal rate of 90% or more (almost completely withered))	4 (Herbicidal rate of 70% or more and less than 90%)	4 (Herbicidal rate of 70% or more and less than 90%)	–
CCOc1cc(F)ccc1-c1sc2cc(OC)ccc2c1-c1c(O)c(C)nn(C)c1=O [3-078]	–	–	–	–	–	–	–	–	–	–	–	–	–	–	–	–	–	F: southern crabgrass, herbicidal effect grade ([1]; 80 g/ha): 5 (Herbicidal rate of 90% or more (almost completely withered)); M: velvetleaf, herbicidal effect grade [2, 19]: 0 (Herbicidal rate of 5% or less (almost no effect)); P: chickweed, herbicidal effect grade [3, 19]: 5 (Herbicidal rate of 90% or more (almost completely withered)); I: wild oat, herbicidal effect grade [4, 19]: 0 (Herbicidal rate of 5% or less (almost no effect)); Herbicidal effect, C: oval-leafed pondweed [5, 19]: 4 (Herbicidal rate of 70% or more and less than 90%); N: redroot pigweed, herbicidal effect grade ([6]; 80 g/ha): 5 (Herbicidal rate of 90% or more (almost completely withered)); herbicidal effect rating, C: oval-leafed pondweed ([7]; AAH 80 g/ha): 4 (Herbicidal rate of 70% or more and less than 90%); herbicidal effect on barnyard grass (H) ([8]; 80 g/ha): 5 (Herbicidal rate of 90% or more (almost completely withered)); R: persian speedwell, herbicidal effect grade [9, 19]: 5 (Herbicidal rate of 90% or more (almost completely withered)); Herbicidal effect, B: Japanese bulrush [10, 19]: 5 (Herbicidal rate of 90% or more (almost completely withered)); L: windgrass, herbicidal effect grade [11, 19]: 0 (Herbicidal rate of 5% or less (almost no effect)); herbicidal effect rating, A: late watergrass ([12]; AAH 80 g/ha): 1 (Herbicidal rate of 5% or more and less than 20%); Q: false cleavers, herbicidal effect grade [13, 19]: 5 (Herbicidal rate of 90% or more (almost completely withered)); G: green foxtail, herbicidal effect grade ([14]; 80 g/ha): 4 (Herbicidal rate of 70% or more and less than 90%); Herbicidal effect, A: late watergrass [15, 19]: 5 (Herbicidal rate of 90% or more (almost completely withered)); N: redroot pigweed, herbicidal effect grade [16, 19]: 3 (Herbicidal rate of 40% or more and less than 70%); F: southern crabgrass, herbicidal effect grade [17, 19]: 4 (Herbicidal rate of 70% or more and less than 90%)
CCCC(=O)Oc1c(C)nn(C)c(=O)c1-c1c(-c2ccc(F)cc2OCC)sc2cc(OC)ccc12 [3-079]	5 (Herbicidal rate of 90% or more (almost completely withered))	3 (Herbicidal rate of 40% or more and less than 70%)	4 (Herbicidal rate of 70% or more and less than 90%)	0 (Herbicidal rate of 5% or less (almost no effect))	5 (Herbicidal rate of 90% or more (almost completely withered))	4 (Herbicidal rate of 70% or more and less than 90%)	5 (Herbicidal rate of 90% or more (almost completely withered))	5 (Herbicidal rate of 90% or more (almost completely withered))	5 (Herbicidal rate of 90% or more (almost completely withered))	5 (Herbicidal rate of 90% or more (almost completely withered))	3 (Herbicidal rate of 40% or more and less than 70%)	5 (Herbicidal rate of 90% or more (almost completely withered))	4 (Herbicidal rate of 70% or more and less than 90%)	5 (Herbicidal rate of 90% or more (almost completely withered))	5 (Herbicidal rate of 90% or more (almost completely withered))	4 (Herbicidal rate of 70% or more and less than 90%)	4 (Herbicidal rate of 70% or more and less than 90%)	–
COc1ccc2c(-c3c(O)c(C)nn(C)c3=O)c(-c3ccc4c(c3)OCCO4)sc2c1 [3-082]	0 (Herbicidal rate of 5% or less (almost no effect))	0 (Herbicidal rate of 5% or less (almost no effect))	4 (Herbicidal rate of 70% or more and less than 90%)	0 (Herbicidal rate of 5% or less (almost no effect))	4 (Herbicidal rate of 70% or more and less than 90%)	5 (Herbicidal rate of 90% or more (almost completely withered))	3 (Herbicidal rate of 40% or more and less than 70%)	5 (Herbicidal rate of 90% or more (almost completely withered))	5 (Herbicidal rate of 90% or more (almost completely withered))	5 (Herbicidal rate of 90% or more (almost completely withered))	0 (Herbicidal rate of 5% or less (almost no effect))	2 (Herbicidal rate of 20% or more and less than 40%)	5 (Herbicidal rate of 90% or more (almost completely withered))	3 (Herbicidal rate of 40% or more and less than 70%)	3 (Herbicidal rate of 40% or more and less than 70%)	3 (Herbicidal rate of 40% or more and less than 70%)	0 (Herbicidal rate of 5% or less (almost no effect))	–
